Laboratory results as given in patent publication US20200268829A1, “METHODS AND COMPOSITIONS FOR INHIBITING METASTASES OF AN ENDOTHELIN B RECEPTOR EXPRESSING CANCER” (ENB Therapeutics, Inc., priority 2020, published 2020).
“Also recorded” adds a separate entry of the source.

Tests used:
ETBR = target: T1, ETBR (Homo sapiens, UniProt P24530); experiment: ETBR antagonist potency (IC50, Ki); no method given; type: binding; settings: for IC50: for BQ788 printed with 'potent inhibitor of ETBR-related melanoma cell growth'
T1 sequence (P24530 27-442): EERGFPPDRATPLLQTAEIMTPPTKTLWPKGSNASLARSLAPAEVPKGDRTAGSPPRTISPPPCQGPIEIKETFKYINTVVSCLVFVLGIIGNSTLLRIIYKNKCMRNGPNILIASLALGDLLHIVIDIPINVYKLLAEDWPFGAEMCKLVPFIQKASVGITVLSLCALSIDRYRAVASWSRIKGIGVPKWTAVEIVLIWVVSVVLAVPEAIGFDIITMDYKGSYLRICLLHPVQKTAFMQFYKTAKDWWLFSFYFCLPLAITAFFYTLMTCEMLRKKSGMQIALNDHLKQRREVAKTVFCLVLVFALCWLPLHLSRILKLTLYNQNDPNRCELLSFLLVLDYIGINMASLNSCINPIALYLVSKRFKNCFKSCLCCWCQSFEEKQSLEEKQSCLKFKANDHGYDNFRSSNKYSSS

[1] = Body weight under ascending intranasal BQ788 doses over 42 days; type: in vivo, athymic nude mice; settings: BQ788 alone, intranasally in 20% DMSO, ascending doses over 42 days
Procedure: FIG. 9. ETAR antagonist and Niacinamide mitigate weight loss from BQ788. Six week old athymic nude mice were administered the ETBR antagonist BQ788 intranasally in 20% DMSO at the indicated ascending doses over a period of 42 days. One group was additionally administered the ETAR antagonist Macitentan orally at a dose of 5 mg/kg daily. The drinking water of these mice was supplemented with the B vitamin niacinamide at a concentration of 0.3 mg/mL. […] Co-administration of the ETAR antagonist Macitentan with niacinamide supplementation mitigated this weight loss. […] Co-administration of ETAR antagonists and niacinamide with ETBR antagonists mitigated the adverse effects of ETBR antagonists when administered for therapeutic purposes.
Six week old athymic nude mice (n=3 per group) were administered the ETBR antagonist BQ788 intranasally in 20% DMSO at the indicated ascending doses over a period of 42 days. One group was additionally administered the ETAR antagonist Macitentan orally at a dose of 5 mg/kg daily. The drinking water of these mice was supplemented with the B vitamin niacinamide at a concentration of 0.3 mg/mL. […] Co-administration of the ETAR antagonist Macitentan with niacinamide supplementation mitigated this weight loss. […]

[2] = tested on: SKMEL28 human melanoma cells; experiment: SKMEL28 human melanoma xenograft in mice: tumor weight, lung metastases, apoptosis; type: in vivo
Procedure: Mice were implanted with 1×10^6 SKMEL28 human melanoma cells. Tumors were established for 10 days until palpable then 120 ng (˜60 ug/kg) BQ788 dissolved in DMSO was injected IP 3×per week×6 weeks. Mice were then sacrificed and lungs harvested and tumors weighed. A 75% reduction in tumor weight was observed.

[3] = tested on: A375 human melanoma cells; experiment: Subcutaneous A375 human melanoma xenograft; type: in vivo, Nu/J nude mice; settings: A375 sc xenograft; Dabrafenib 100 mg/Kg PO daily, alone or with BQ788 600 ng IP TIW; p<0.05
Procedure: FIG. 7. BQ788 synergizes with Dabrafenib in vivo. A375 human melanoma cells were implanted subcutaneously into the rear flank of Nu/J nude mice and allowed to grow to 150 mm3-200 mm3 prior to randomization and initiation of treatment. The mice received the following treatments: (1) vehicle (n=8), (2) Dabrafenib 100 mg/Kg PO daily (n=5), and (3) Dabrafenib+BQ788 600 ng IP TIW (n=5).
A375 human melanoma cells (3×10^6) were implanted subcutaneously into the rear flank of Nu/J nude mice and allowed to grow to 150 mm3-200 mm3 prior to randomization and initiation of treatment. The treatment groups were as follows: (1) vehicle (n=8), Dabrafenib 100 mg/Kg PO daily (n=5), (2) Dabrafenib+BQ788 600 ng IP 3×per week (n=5).

[4] = tested on: melanoma cell lines overexpressing ETBR (brain metastases); experiment: Mouse melanoma brain metastasis model, xenografts of melanoma cell lines overexpressing ETBR; type: in vivo, mice; settings: 60 mg/kg/day
Procedure: FIGS. 5A, 5B, 5C, 5D, and 5E. ETBR antagonist inhibits melanoma brain metastasis in mice. […] In this study, lentiviral vectors were used to overexpress ETBR in melanoma cell lines, which were in turn used to implant xenografts in mice.
A192621 was administered at a dose of 60 mg/kg/day using a mouse melanoma model. […] In this study, lentiviral vectors were used to overexpress ETBR in melanoma cell lines, which were in turn used to implant xenografts in mice. In this study, lentiviral vectors were used to overexpress ETBR in melanoma cell lines, which were in turn used to implant xenografts in mice.

SMILES | Ki (ETBR) | IC50 (ETBR) | average weight loss relative to baseline body weight by the end of the study [1] | reduction in tumor weight ([2]; SKMEL28 xenograft mice, 120 ng (~60 ug/kg) BQ788 in DMSO IP 3x per week x 6 weeks) | clearance of lung metastases ([2]; SKMEL28 xenograft mice, 120 ng (~60 ug/kg) BQ788 in DMSO IP 3x per week x 6 weeks, vs control mice) | apoptosis in melanoma tumor cells ([2]; melanoma tumor cells) | tumor growth [3] | CNS melanoma tumors [4] | brain melanoma metastases [4] | survival [4]
CCCC[C@@H](NC(=O)[C@@H](Cc1cn(C(=O)OC)c2ccccc12)NC(=O)[C@H](CC(C)(C)C)NC(=O)N1[C@H](C)CCC[C@@H]1C)C(=O)O [BQ788] | 17.8 nM | 1.2 nM | 5% | 75% | > 95% | induces apoptosis |  |  |  | 
CC(C)(C)c1nc(-c2cccc(NS(=O)(=O)c3c(F)cccc3F)c2F)c(-c2ccnc(N)n2)s1 [Dabrafenib] |  |  |  |  |  |  | retarded the growth of tumors; also recorded: retarded tumor growth |  |  | 
CCCOc1ccc([C@H]2[C@H](C(=O)O)[C@@H](c3ccc4c(c3)OCO4)CN2CC(=O)Nc2c(CC)cccc2CC)cc1 [A192621, (2R,3R,4S)-4-(1,3-benzodioxol-5-yl)-1-[2-(2,6-diethylanilino)-2-oxoethyl]-2-(4-propoxyphenyl)pyrrolidine-3-carboxylic acid] | 8.8 nM | 4.5 nM |  |  |  |  |  | shrinks CNS melanoma tumors | shrinks brain melanoma metastases | increases survival
